Bridge positions count the residues as written; N and C are the ends. Ends that are not written are not given here.
How the values were obtained:
MUC2 = MUC2 (Homo sapiens, UniProt Q02817); experiment: Phage ELISA on MUC2; assay type: binding; settings: phage clones displaying the peptide, 10^7 PFU/μL, MUC2-coated plate, anti-M13/HRP, TMB, 450 nm, blank subtracted, three wells; vs random library and insertless phage
From the text: We next sought to validate the binding efficiency of these identified phage clones. We tested phage clones displaying peptides M2.1, M2.2, M2.3, and M2.4 for binding to MUC2, and phage clones displaying peptides M5.1, M5.2, M5.3, and M5.4 for binding to MUC5AC. We utilized a bacteriophage enzyme-linked immunosorbent assay to test the binding of the peptide hits to the specific target mucins, MUC2 and MUC5AC (Figure 2d). The spectrophotometer reported absorbance values at 450 nm. The intensity of the absorbance signal is proportional to the amount of peptide-mucin binding present in each sample. The negative controls (library samples and insertless samples) served as references for nonspecific binding.
First, mucin was coated onto the surface of a plastic plate overnight using the same process as that performed for the original phage display. The next morning, three wells of each phage clone were prepared, with each phage solution having a titer of 10^7 PFU/μL to ensure a fair comparison between the clones. […]
However, instead of eluting the bound phage, 100 μL of 1:2000 anti-M13/HRP mouse monoclonal antibody was added to each well, and the antibody was allowed to incubate with the wells for 30 min. […] The resulting solutions were analyzed by absorbance spectroscopy at a wavelength of 450 nm to determine the relative amount of phage present in each well.

[1] = system: MUC2-containing intestinal tissue (jejunal); experiment: Ex vivo fluorescent binding to small intestine tissue; design: species or system porcine; settings: MUC2-selective peptides to small intestine; for Overall nanoparticle “score”: scaled between free AF647 (0) and WGA-AF647 (1), mean across trials n = 3; for Selectivity: score for MUC2 tissue / sum of scores for all mucins, n = 3
From the text: After identifying the peptide hits for each mucin, we tested their binding in an ex vivo setting (Figure S1), evaluating their interaction with mucin-containing porcine tissue and semiquantitatively representing it through fluorescent imaging (Figure 3a). The cyclic peptides were synthesized and conjugated to a fluorophore, Alexa Fluor 647 (AF647), at the N-terminus to allow fluorescent imaging to be used to semiquantitatively measure the peptides’ ex vivo tissue binding, compared to free AF647 and AF647 conjugated to wheat germ agglutinin (WGA), a known lectin for glycoproteins.[40] […] Porcine GI tissue was used due to its similarity in mucin expression compared to human GI tissue and its capacity to source large surface areas of tissue for experiments.[41],[42] Representative IVIS images are shown in Figure 3b-e, where the first four columns represent the four identified peptides (M2.1–M2.4 in Figure 3b,c, M5.1–M5.4 in Figure 3d,e), the fifth column represents WGA-AF647, and the sixth column represents AF647. The “score” results for the peptide ligands are presented in Figure 3f,g for the mucins of interest, with Tables S2–S5 and Figure S3 detailing results for the other tissues (the equation for calculating the “score” is found in the Materials and Methodssection). […] We also examined selectivity by incubating peptides on nontarget tissues. Figure 3h,i depicts the “selectivity” results for the MUC2-selective and MUC5AC-selective peptides, respectively. Selectivity was calculated by determining the ratio of the “score” for a particular mucin to the sum of the “scores” for all mucins (see the Materials and Methods section for the equation used).
The top-performing hits from phage display were tested on ex vivo segments of porcine mucin-containing tissues (jejunal, stomach, and esophageal tissues) obtained from local abattoirs or laboratory-maintained pigs. Tissue was used either immediately after acquisition or after storage at −80 °C; tissue was used at most 1 week after acquisition and storage at −80 °C. After acquisition and equilibration to room temperature, the tissue was washed twice with 25 mL (each) of cold 1× PBS to remove undigested food and other debris. After washing and cleaning, the tissue was mounted between two magnetic plates with holes corresponding to a 48-well plate, as previously described,[72] such that the luminal side of the tissue was facing up (Figure S1). After the tissue was mounted, the amount of peptide/protein corresponding to 40 μg of AF647 was suspended in 200 μL of 1× PBS and added to the wells created by the magnetic plates. This was done 3× for each formulation to perform the experiment in triplicate. In addition, plain 1× PBS was added to one well to serve as the background measurement. After the peptides were added, the plate setup was covered with aluminum foil and allowed to incubate for 1 h at room temperature with gentle agitation (50 rpm). After incubation, the nonbinding peptides were removed by pouring out the solutions onto a clean paper towel, and the setup was washed three times by adding 200 μL of 1× PBS to each well and gently agitating the setup for 30 s before removing the washing solution. After washing was complete, fluorescence imaging was performed using an IVIS Spectrum fluorescent imaging system (PerkinElmer), with an automatically calculated exposure time (usually ∼1 s), a 20 cm × 20 cm field of view, and an excitation/emission of 640/680 nm, respectively. The imaging results were analyzed using Living Image software to calculate the total fluorescence intensity for each well, and the results for each hit or control were averaged across different wells. The negative control used was unconjugated AF647, while the positive control was WGA-AF647, since WGA is a known lectin that binds glycoproteins.
To better account for tissue-to-tissue variability, the results for each trial were reported as scores rather than using the raw fluorescence intensity. […]

| Overall nanoparticle “score” [1] | Selectivity [1] | Sequence | phage ELISA absorbance vs negative controls (MUC2) |
| --- | --- | --- | --- |
| 0.550 | 0.298 | CAKHRIMLC (disulfide 1-9 (inferred)) [Peptide M2.1, CX7C cyclic peptide hit for MUC2; AF647 conjugated at N-terminus in ex vivo tests] | significantly higher absorbances than the two negative controls |
| 0.243 | 0.396 | CTDKASSSC (disulfide 1-9 (inferred)) [Peptide M2.2, CX7C cyclic peptide hit for MUC2] | significantly higher absorbances than the two negative controls |
